The text below walks through data of ChEMBL document CHEMBL5257059, “Pyridine-Based 1,2,4-Triazolo-Tethered Indole Conjugates Potentially Affecting TNKS and PI3K in Colorectal Cancer” (ACS Med Chem Lett, 2023).

The subject of assay [1] is HT-29. The experiment in a line: Induction of cell cycle arrest in human HT-29 cells assessed as accumulation of cells at subG1 phase at 4 uM incubated for 24 hrs by RNase/PI staining based flow cytometry analysis (reference value: 1.798%). The format is functional.
The target in assay [2] is Phosphatidylinositol 3-kinase regulatory subunit alpha (Homo sapiens) (UniProt P27986). The experiment in a line: Inhibition of PI3K-P85 phosphorylation in human HT-29 cells at 4 uM incubated for 72 hrs by Western blot analysis. The format is cell-based. On the technique in general: A western blot detects proteins with antibodies after separation by electrophoresis.
Phosphatidylinositol 3-kinase regulatory subunit alpha (Homo sapiens), sequence (P27986 whole entry): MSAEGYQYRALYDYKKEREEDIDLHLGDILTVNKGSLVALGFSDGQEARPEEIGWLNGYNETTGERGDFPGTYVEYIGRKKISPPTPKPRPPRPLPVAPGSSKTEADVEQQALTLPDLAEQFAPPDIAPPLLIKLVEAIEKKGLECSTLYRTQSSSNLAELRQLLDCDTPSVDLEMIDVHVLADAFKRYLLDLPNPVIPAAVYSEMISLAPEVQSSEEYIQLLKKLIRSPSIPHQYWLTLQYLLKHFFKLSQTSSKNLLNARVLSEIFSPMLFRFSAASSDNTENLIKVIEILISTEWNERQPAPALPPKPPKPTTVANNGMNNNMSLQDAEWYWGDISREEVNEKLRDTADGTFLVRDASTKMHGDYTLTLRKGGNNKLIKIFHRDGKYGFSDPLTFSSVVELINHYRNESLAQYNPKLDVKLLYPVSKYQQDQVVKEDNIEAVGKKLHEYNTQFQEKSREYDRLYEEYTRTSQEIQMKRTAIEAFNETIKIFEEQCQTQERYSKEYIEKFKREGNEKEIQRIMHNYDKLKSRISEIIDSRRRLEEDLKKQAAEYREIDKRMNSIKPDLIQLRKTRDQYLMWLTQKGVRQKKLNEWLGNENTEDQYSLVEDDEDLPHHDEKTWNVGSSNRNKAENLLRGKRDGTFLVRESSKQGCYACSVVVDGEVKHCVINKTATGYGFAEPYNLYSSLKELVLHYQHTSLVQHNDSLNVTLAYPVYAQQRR
For assay [3], the target named is T1, Catenin beta-1 (Homo sapiens) (UniProt P35222).
T1 sequence (whole entry): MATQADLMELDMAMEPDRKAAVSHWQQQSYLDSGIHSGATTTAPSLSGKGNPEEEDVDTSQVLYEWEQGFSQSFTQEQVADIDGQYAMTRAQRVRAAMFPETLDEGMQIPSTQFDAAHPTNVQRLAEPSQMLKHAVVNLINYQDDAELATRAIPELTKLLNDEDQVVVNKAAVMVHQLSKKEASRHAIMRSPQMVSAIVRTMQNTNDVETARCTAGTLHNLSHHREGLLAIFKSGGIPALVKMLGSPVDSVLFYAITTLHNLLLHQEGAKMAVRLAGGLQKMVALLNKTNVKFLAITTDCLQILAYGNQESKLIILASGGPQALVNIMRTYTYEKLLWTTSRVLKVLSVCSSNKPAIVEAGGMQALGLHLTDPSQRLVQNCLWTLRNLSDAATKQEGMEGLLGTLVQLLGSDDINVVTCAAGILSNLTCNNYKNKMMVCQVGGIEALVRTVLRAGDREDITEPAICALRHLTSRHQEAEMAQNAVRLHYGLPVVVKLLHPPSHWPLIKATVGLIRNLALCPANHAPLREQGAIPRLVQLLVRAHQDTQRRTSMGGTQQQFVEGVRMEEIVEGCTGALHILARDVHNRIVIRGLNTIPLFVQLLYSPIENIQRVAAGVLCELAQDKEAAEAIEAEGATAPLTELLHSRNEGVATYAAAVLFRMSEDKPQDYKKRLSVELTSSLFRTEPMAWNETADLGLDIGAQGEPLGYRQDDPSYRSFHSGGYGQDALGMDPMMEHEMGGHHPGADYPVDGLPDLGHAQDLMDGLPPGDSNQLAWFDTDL
In words: Inhibition of beta-catenin phosphorylation in human HT-29 cells at 4 uM incubated for 72 hrs by Western blot analysis. The format is cell-based.

Assay [4] has as its system HT-29. The experiment in a line: Inhibition of AXIN-2 protein expression in human HT-29 cells at 4 uM incubated for 72 hrs by Western blot analysis. The format is functional, cell-based.
The test system of assay [5] is HT-29. The experiment in a line: Inhibition of GSK-3beta protein expression in human HT-29 cells at 4 uM incubated for 72 hrs by Western blot analysis. The format is functional, cell-based.
For assay [6], the system named is HT-29. The experiment in a line: Inhibition of beta-catenin protein expression in human HT-29 cells at 4 uM incubated for 72 hrs by Western blot analysis. The format is functional, cell-based.
The test system of assay [7] is HT-29. The experiment in a line: Inhibition of AKT protein expression in human HT-29 cells at 4 uM incubated for 72 hrs by Western blot analysis. The format is functional, cell-based.
Assay [8] relates to HT-29. The experiment in a line: Induction of cell cycle arrest in human HT-29 cells assessed as accumulation of cells at G0/G1 phase at 1 uM incubated for 24 hrs by RNase/PI staining based flow cytometry analysis (reference value: 50.206%). The format is functional. In general terms: In flow cytometry, cells or beads pass a laser one at a time.
In assay [9] the test system is HT-29. In words: Induction of ROS generation in human HT-29 cells at 1 uM by CM-H2DCFDA fluorescent probe based flow cytometry analysis (reference value: 0.528%). The format is functional.
In assay [10] the test system is HT-29. The experiment in a line: Downregulation of beta-catenin protein expression in human HT-29 cells at 1 uM by immunostaining based confocal microscopic analysis. The format is functional, cell-based.
For assay [11], the target named is T1, Catenin beta-1 (Homo sapiens). In words: Inhibition of beta-catenin phosphorylation in human HT-29 cells at 1 uM incubated for 72 hrs by Western blot analysis. The format is cell-based.
Assay [12] has as its system HT-29. The experiment in a line: Inhibition of APC protein expression in human HT-29 cells at 1 uM incubated for 72 hrs by Western blot analysis. The format is functional, cell-based.
Assay [13] concerns HT-29. The experiment in a line: Inhibition of beta-catenin protein expression in human HT-29 cells at 1 uM incubated for 72 hrs by Western blot analysis. The format is functional, cell-based.
In assay [14] the test system is HT-29. The experiment in a line: Inhibition of phosphorylated PI3K-p85 protein expression in human HT-29 cells at 1 uM incubated for 72 hrs by Western blot analysis. The format is functional, cell-based.
Assay [15] deals with HT-29. In words: Inhibition of PI3K-p85 protein expression in human HT-29 cells at 1 uM incubated for 72 hrs by Western blot analysis. The format is functional, cell-based.
The test system of assay [16] is HT-29. In words: Inhibition of pan-AKT protein expression in human HT-29 cells at 1 uM incubated for 72 hrs by Western blot analysis. The format is functional, cell-based.
Assay [17] relates to HT-29. The experiment in a line: Inhibition of AKT protein expression in human HT-29 cells at 1 uM incubated for 72 hrs by Western blot analysis. The format is functional, cell-based.
For assay [18], the system named is HT-29. The experiment in a line: Induction of cell cycle arrest in human HT-29 cells assessed as accumulation of cells at S phase at 2 uM incubated for 24 hrs by RNase/PI staining based flow cytometry analysis (reference value: 17.934 %). The format is functional.
Assay [19] concerns HT-29. The experiment in a line: Induction of cell cycle arrest in human HT-29 cells assessed as accumulation of cells at subG1 phase at 2 uM incubated for 24 hrs by RNase/PI staining based flow cytometry analysis (reference value: 1.798%). The format is functional.
The subject of assay [20] is HT-29. The experiment in a line: Induction of ROS generation in human HT-29 cells at 2 uM by CM-H2DCFDA fluorescent probe based flow cytometry analysis (reference value: 0.528%). The format is functional.
Assay [21] deals with HT-29. The experiment in a line: Downregulation of TAB-182 protein expression in human HT-29 cells at 2 uM by immunostaining based confocal microscopic analysis. The format is functional, cell-based.
The test system of assay [22] is HT-29. In words: Inhibition of APC protein expression in human HT-29 cells at 2 uM incubated for 72 hrs by Western blot analysis. The format is functional, cell-based.
For assay [23], the system named is HT-29. The experiment in a line: Inhibition of AXIN-2 protein expression in human HT-29 cells at 2 uM incubated for 72 hrs by Western blot analysis. The format is functional, cell-based.
In assay [24] the test system is HT-29. The experiment in a line: Inhibition of phosphorylated GSK-3beta protein expression in human HT-29 cells at 2 uM incubated for 72 hrs by Western blot analysis. The format is functional, cell-based.
Assay [25] has as its system HT-29. The experiment in a line: Inhibition of GSK-3beta protein expression in human HT-29 cells at 2 uM incubated for 72 hrs by Western blot analysis. The format is functional, cell-based.
For assay [26], the system named is HT-29. In words: Inhibition of PI3K-p85 protein expression in human HT-29 cells at 2 uM incubated for 72 hrs by Western blot analysis. The format is functional, cell-based.

Activity calls are given as the source filed them. The rule behind the calls is not given here.

As to `COc1cccc(-n2c(SCCc3c[nH]c4ccccc34)nnc2-c2ccncc2)c1`, the Activity with HT-29 [1] is reported as 2.668%. For the same compound, the inhibition entry (in assay [2]; in [3]; with HT-29 [4]; with HT-29 [5]; in the assay on HT-29 [6]; in the assay on HT-29 [7]) was “Active” throughout.
For the compound `COc1ccc(-n2c(SCCc3c[nH]c4ccccc34)nnc2-c2ccncc2)cc1`, the Activity with HT-29 [8] was 59.672%; in the assay with HT-29 [9] it was 15.334%. Further, in the assay with HT-29 [10], the outcome was Active. Moreover, the inhibition result (in assay [11]; in the assay with HT-29 [12]; in the assay with HT-29 [13]; in the assay with HT-29 [14]; in the assay on HT-29 [15]; in the assay with HT-29 [16]) was “Active” throughout. Also, the inhibition entry in the assay with HT-29 [17] is “Active”.
For the compound `Fc1ccccc1-n1c(SCCc2c[nH]c3ccccc23)nnc1-c1ccncc1`, the results for the Activity with HT-29 [18], in the assay with HT-29 [19] and in the assay on HT-29 [20] were 7.976%, 0.854% and 1.526%, respectively. For the same compound, in the assay with HT-29 [21], the outcome was Active. The inhibition result in the assay with HT-29 [22], in the assay with HT-29 [23], in the assay with HT-29 [24], with HT-29 [25] and with HT-29 [26] was “Active” each time.
